# Results reported in US10391150B2, “Treatments for migraine and related disorders” (The University of Chicago, priority 2011, dated 2019).
# Like-named read-outs stand apart in the source and are kept apart here.
# Key:
# [1] = test system: myelin basic protein (MBP); assay: Myelin basic protein (MBP) Western blot in hippocampal slice cultures; format: cell-based, rat; conditions: after SD; anti-CD4 for 24 hours at 7 days in vitro; GW 4869
# Method: FIGS. 14A-14C. Reduced myelin basic protein (MBP) from SD depends on IFN-γ/T-cell activation and sphingomylinase. […] Thus, confirming involvement of T cells.
# FIGS. 15A-15C. Physiological and transient elevation [i.e., phasic (see FIG. 1)] of IFN-γ triggers completely opposite effects. Transient (i.e., 500 U/mL×12 hours; all groups n≥5) exposure of hippocampal slice cultures was nutritive when assessed seven days later.
# [2] = test system: CA3 area evoked excitability; format: cell-based, rat; conditions: H2O2 exposure
# Method: (§1) FIGS. 11a-11g IGF-1 decreased CA3 oxidative stress (OS) and its related hyperexcitability. […] Relative evoked excitability was determined as a sum of responses seen (e.g., responses of “2” and a “3” yielded an overall excitability score of five). […] (FIGS. 11d-e) Exemplary images of control (FIG. 11d) slice culture OS compared to increased slice OS induced by exposure to menadione (FIG. 11e). Calibration bar, 200 Dotted boxes indicate CA3 areas of interest used for relative OS quantifications (f and g).
# [3] = test system: oxidative stress (OS) in hippocampal slice cultures; assay: Oxidative stress (OS) by CellROX fluorescence in hippocampal slice cultures (CA3); format: cell-based, rat; conditions: menadione exposure, without or with acute IGF-1
# Method: FIGS. 4A-4F Oxidative stress (OS) from SD and its reduction by IGF-1. (FIG. 4A) Normal cytoarchitecture of a hippocampal slice culture showing pyramidal neuron areas of CA1, dentate gyrus (DG), and the imaging zone for the inventors' work here (dotted line), CA3. (FIG. 4B) OS was measured using CellROX, a fixable fluorescent marker from Invitrogen. […] (FIG. 4D) This reduction versus control SD was significant (p<0.02; n=4 & 5). (FIG. 4E) CellROX can be used to measure relative OS in specific brain cell types.
# FIGS. 9a-9f IGF-1 decreased oxidative stress from spreading depression. (FIG. 9a) NeuN immunohistochemical labeling of a hippocampal slice culture, for cytoarchitectural reference and to show the CA3 area of interest (dotted line box) used for quantification of oxidative stress (OS) via CellROX™ fluorescence intensity. (FIGS. 9b-c) Representative CellROX™-labeled hippocampal slices exposed to SD (FIG. 9b) and to 3-day IGF-1 incubation followed by spreading depression (SD) (FIG. 9c). Dotted line boxes illustrate CA3 areas of interest used for relative OS quantifications. […] Again, seven day treatments consisted of exposing cultures to IGF-1 for 12 hours a day for seven days. Note: IGF-1 exposure was continued for the additional 24 hour CellROX™ incubation. Scale bars=400 μm (a) and 200 μm (b and c). Comparisons between groups were made via ANOVA plus Holm-Sidak post hoc testing.
# as §1
# Oxidative stress from SD preferentially rises in astrocytes and microglia, with the latter effect mitigated by IGF-1 (FIG. 13). The inventors have recently shown that spreading depression (SD), the most likely cause of migraine aura and perhaps migraine (Lauritzen and Kraig, 2005), occurs with increased oxidative stress (OS) and that OS, in turn, increases SD susceptibility (Grinberg et al., 2012). Reactive oxygen and nitrogen species that cause OS have both autocrine and paracrine signaling capacities that can affect SD susceptibility by altering excitability (Kishida and Klann, 2007). Accordingly, the inventors looked for the cellular origin of OS from SD. Here the inventors used hippocampal slice cultures (HSC) to probe for cell-specific changes in OS from SD. SD was induced trans-synaptically in rat HSCs using bipolar electrical stimuli at the dentate gyrus (Pusic et al., 2011). Six SDs were induced every 7-9 min over an hr, followed by 24 hr incubation in CellROX™, a fixable fluorogenic probe for measuring OS (Grinberg et al., 2012). HSCs were then fixed in 10% buffered formalin phosphate. Other fixatives (PLP, 4% paraformaldehyde) prevented detection of OS change. Tissue was then labeled for neurons (anti-NeuN), oligodendrocytes (anti-RIP), astrocytes (anti-GFAP), or for microglia (isolectin GS-IB4).
# [4] = test system: spreading depression (SD) in hippocampal slice cultures; assay: Spreading depression (SD) threshold / susceptibility in hippocampal slice cultures; format: cell-based, rat
# Text: FIGS. 2A-2E. […] (FIG. 2A) Experiments begin with determination of the current needed to maximize standard CA3 area field potential responses. Half-maximal intensity is then used to elicit CA3 area evoked field potentials from dentate gyrus bipolar electrical stimulation. This documents the normalcy of evoked synaptic responses between preparations. If a slice's field excitatory post synaptic potentials are not at least 3 mV, slices are discarded. Next, field potential trains (i) are noted to verify that preparations are healthy enough to follow 10 Hz stimulation (e.g., amplitudes of vertical deviations in fast potential records are similar) and the current needed to trigger SD (ii) is registered (Pusic and Kraig, 2010).
# (FIG. 8a) Exemplary CA3 area evoked field potential. Experiments begin with establishment of the current intensity needed to evoke maximal field potential responses; stimuli of half-maximal intensity were then used to elicit subsequent field potentials. Only those cultures with CA3 pyramidal neuron post-synaptic responses of at least 3 mV were used for experiments. (FIG. 8b) CA3 response to dentate gyrus bipolar stimulation (10 pulses at 10 Hz, 500 μA) was used to elicit a spreading depression (SD), as shown in (FIG. 8c). (FIG. 8c) The spreading depression (SD) shown here was induced by the stimulation/response (arrow) shown in (FIG. 8b). […] Comparisons between groups made via Student's t-test.
# The inventors induced SD trans-synaptically in rat HSC using electrical stimuli (100 μs pulses @ 10 Hz for 1 s) ranging from 1 to 10,000 nC in order to determine SD threshold in sham and experimental groups (Pusic et al., 2011). Results were based on n≥3-6/group. […] This insulin dose approximates the pharmacological levels seen in humans treated with nasal insulin.
# Slice cultures were prepared and maintained as previously described (Mitchell et al., 2010a,). After 18 days in vitro (DIV), slice cultures were transferred to serum-free media that included additional calcium and magnesium. Cultures were screened at 21 DIV to ensure no pyramidal neuron death was present. Standard electrophysiological recordings were performed by placing a slice culture insert in a PDMI recording chamber with controlled temperature and pH (FIG. 1). The recording chamber was aerated with 5% CO2-balance air at 36° C. and media flowing at 1.2 mL/min or was held static around the slice culture insert. A recording electrode was placed at the CA3 pyramidal cell layer and a stimulating electrode was placed at the surface of the dentate gyrus. Recordings were initiated prior to placing the stimulating electrode on the culture to ensure no spreading depression was triggered as a result.
# Studies began with determination of the current needed to maximize standard CA3 area field potential responses. This documented the normalcy of evoked synaptic responses between preparations. If a slice's field EPSPs were not at least 3-4 mV, it was discarded.
# Next, trans-synaptically evoked SD was determined. Here, the inventors stimulated slices via the dentate gyrus with 100 μs pulses delivered at 10 Hz for 1 sec every 1-2 minutes at increasing μA current intensities until SD occurred.
# Slice cultures are prepared, maintained, and induced to fire SD as previously described using trans-synaptic excitation of CA3, where SD is initiated (FIG. 4) (Kunkler et al., 2005; Pusic et al., 2011).
# [5] = test system: SD in neocortex and hippocampus of anesthetized rat; assay: SD threshold in vivo (0.5 M KCl injection) after nasal administration; conditions: acutely after nasal treatment (IGF-1 150 μg; insulin 20 μg); control 1-8 nL
# Method: Images show experimental setups for nasal administration and testing. (FIG. 7A) Nasal injection setup showing heat lamp and thermo-regulator that maintains temperature at 37° C. plus nose cone used to deliver isoflurane anesthesia. (FIG. 7B) Operator is shown administering nasal IGF-1 solution, which is performed in a fume hood to adequately vent isoflurane from nose cone. (FIG. 7C) Image illustrates standard electrophysiology setup. Anesthetized animal is placed into a standard electrophysiology holder and anesthesia maintained by a nose cone delivering 3% isoflurane in oxygen. Arterial oxygen saturation is monitored with a pulse-oximeter. Animals are warmed to 37.5° C. with a heating plate. SD is induced by progressively injecting larger volumes of 0.5 M KCl from an 8 μm diameter microelectrode. SD is registered with a second microelectrode used for DC recordings placed more caudally. After SD is evoked by a given injection pulse, the stimulating electrode is withdrawn and a volume re-injected under mineral oil. The diameter of the resultant KCl injection sphere is then measured off line using a compound microscope and the injection volume calculated. For example, in the above whole animal experiments it took 1-8 nL of 0.5 M KCl to evoke SD in control brain regions while after acute IGF-1 this amount rose to 67-109 nL. A day after IGF-1 treatment the volume needed to evoked SD was 34-48 nL. IFN-γ treatment required 338 nL of 0.5 M KCl a day after treatment and IL-11 required 67-200 nL.
# Rats (FIGS. 6 and 7) are anesthetized with inhalational isoflurane and kept warm. While anesthetized, animals are placed in a supine position and 50 μL of sterile drug (i.e., IFN-γ, IGF-1, or IL-11) solution [or sterile saline vehicle (sham control)] is administered nasally by delivering 5 μL alternating between the left and right naris every 2 min over 20 minutes. Animals are given nasal drug treatments daily at the same time for 7 days before subsequent experiments. Doses for all 3 agents begin with the effective doses noted in our work using slice cultures (1×), then include others (0.1× and 10×). The inventors base this strategy on the fact that the effective culture dose for IGF-1 (40 ng/mL) closely approximates the dose used in vivo (143 μg/kg).
# This approach was applied to measurement of SD threshold (FIG. 10) after treatment (FIG. 7) with nasally administered IGF-1 (150 μg), IL-11 (1 μg), IFN-γ (50,000 units), and insulin (20 μg). […] Resistance against SD was always greater in hippocampus compared to neocortex (n=4, controls; n=3, acutely after IGF-1; n=6, one day after IGF-1; n=6, one day after IL-11; n=6, one day after IFN-γ; and n=3, acutely after insulin).
# Nasal administration followed by SD threshold evaluation in vivo. Vehicle or human recombinant IGF-1 (150 μg) is administered intranasally. SD threshold is established by injection of nanoliter volumes of 0.5 M KCl into neocortex or hippocampus (−2.0 mm from Bregma and 1.5 mm lateral from midline at either 750 μm or 2,800 μm into brain, respectively) using a thin-walled glass pipette and Picospritzer. Once a threshold is established, it is confirmed two more times, with an exemplary record from a vehicle-sham animal shown below. […] The diameter of the injected sphere is then measured using a compound microscope and used to calculate the injected volume, then moles of potassium. […]
molecule,measurement,setting,value
"O=C(/C=C/c1ccc(/C=C/C(=O)Nc2ccc(C3=NCCN3)cc2)cc1)Nc1ccc(C2=NCCN2)cc1 [GW 4869, reference compound]",decline in MBP / demyelination after SD,[1],prevents the drop in MBP after SD
"OO [hydrogen peroxide, reference compound]",evoked excitability versus control,[2]; without or with IGF-1 pretreatment for 3 days,increased slice excitability
same,evoked excitability versus control,"[2]; without or with acute IGF-1, 30 minutes after H2O2",significantly increased evoked slice hyperexcitability
same,evoked excitability versus control,"[2]; without or with acute IGF-1, 30 minutes after H2O2, listed as H2O2",increase in evoked excitability
"CC1=CC(=O)c2ccccc2C1=O [menadione, reference compound]",OS induced by menadione versus control,[3],significant increase in slice OS
Insulin,relative SD threshold versus control (control 1.00±0.20),"[4]; 3-day exposure, insulin 400 μg/mL",22.60±9.60
same,insulin dose needed for protective effect relative to IGF-1,[4]; protection against SD in slice cultures,15 500 fold
same,dose needed for protective effect against SD,[4]; slice cultures,70 µM
same,volume of 0.5 M KCl needed to evoke SD,[5],8 to 34 nL
"sTNFR1: soluble TNFR1 used for removal of TNF-α signaling (protein, UniProt P19438 30-211, looked up, extracellular domain, soluble TNFR1 used for removal of TNF-α signaling) extracellular domain: LVPHLGDREKRDSVCPQGKYIHPQNNSICCTKCHKGTYLYNDCPGPGQDTDCRECESGSFTASENHLRHCLSCSKCRKEMGQVEISSCTVDRDTVCGCRKNQYRHYWSENLFQCFNCSLCLNGTVHLSCQEKQNTVCTCHAGFFLRENECVSCSNCKKSLECTKLCLPQIENVKGTEDSGTT",SD-induced increased susceptibility to SD,"[4]; after previous SD, soluble TNFR1 200 ng/mL after first day of SD, anti-CD4 0.1 mg/mL at 7 days for 24 hours",abrogated
